Common to all, as to assay: DTP human tumour cell line panel, 48 h
Test [1] deals with COLO 205 colon.
For test [2], the system named is UO-31 renal.
Test [3] concerns HL-60(TB) leukemia.
For test [4], the system named is RPMI-8226 leukemia.
The subject of test [5] is SN12C renal.
The subject of test [6] is KM12 colon.
Test [7] has as its system IGROV1 ovarian.
For test [8], the system named is MDA-MB-231 breast.
The test system of test [9] is NCI-H460 lung.
In test [10] the test system is HCC-2998 colon.

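48-hour exposure; five concentrations; linearly interpolated endpoints. The concentration for 50% growth inhibition is given as GI50. Definition used: TGI = concentration required for complete inhibition of growth.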

For the compound `COc1ccc2nc3ccccc3c(NCc3ccccc3)c2c1`, the GI50 (as a rule, the concentration at which growth is held to half of that of the control) in test [1] is 1.54 µM; in test [2] it was 1.54 µM; in test [3], 2.15 µM; in [4], 1.93 µM; in [5] it was 2.71 µM; in [6], 3.49 µM. Besides, the GI50 in test [7] was 2.34 µM; in [8] it was 1.85 µM; in test [9], 2.19 µM; in test [10], 1.86 µM. Besides, the TGI (as a rule, the concentration at which net growth stops) in [1] is 3.54 µM; in test [2], 5.34 µM; in test [3], 4.81 µM; in test [4], 4.49 µM; in test [5], 10.5 µM; in [6], 12.9 µM. In addition, the TGI in [7] turned out to be 6.66 µM; in test [8], 4.38 µM; in test [9] it was 4.86 µM; in test [10], 3.77 µM.
On to `OCC1OC(n2cnc3c(NCc4ccco4)ncnc32)C(O)C1O` (stereo not given), for which the GI50 in test [1] was 2.25 µM; in [2], 0.567 µM; in [3], 0.724 µM; in test [4] it was 3 µM; in [5] it was 0.386 µM; in [6], 8.51 µM. Further, the GI50 is 2.09 µM in test [7], 0.348 µM in [8], 2.79 µM in test [9] and 3.85 µM in [10]. The TGI in test [1] is 7.83 µM; in [2], 53.7 µM; in test [3] it was 3.48 µM; in [4], 21.3 µM; in test [5] it was above 100 µM; in [6], above 100 µM. The concentration for total growth inhibition (TGI) in test [7] was found to be 13.9 µM; in test [8] it was 18.8 µM; in test [9], 32.8 µM; in test [10], 40 µM.
As for `O=C(Nc1ccc(Cl)cc1)N1CCN(c2ccc3nncn3n2)CC1`, the GI50 is 51.6 µM in test [1]; 24.9 µM in test [2]; 29.8 µM in test [3]; 29.7 µM in test [4]; 72.4 µM in [5]; 52.9 µM in [6]. Further, the GI50 was above 100 µM in [7], 63.2 µM in test [8], 50.4 µM in test [9] and 81.8 µM in test [10]. Besides, the concentration for total growth inhibition (TGI) in [1], in test [2], in test [3], in test [4], in test [5] and in [6] was above 100 µM in each case. Besides, the TGI in test [7], in test [8], in test [9] and in test [10] was above 100 µM in each case.
On to `Cc1nn(-c2ccccc2)c2nc(C)n(-c3ccc(Br)cc3)c(=O)c12`, for which the GI50 in test [1] was 0.549 µM; in test [2], 0.631 µM; in test [3], 0.286 µM; in test [4], 0.571 µM; in test [5], 0.721 µM; in test [6], 0.521 µM. Besides, the GI50 in [7] is 0.584 µM; in test [8], 1.45 µM; in test [9], 0.451 µM; in test [10], 1.61 µM. Further, the TGI in test [1] is 18.4 µM; in [2] it was 36.7 µM; in test [3], 3.07 µM; in test [4], above 54.6 µM; in test [5], above 100 µM; in test [6], above 100 µM. The TGI in test [7] was above 100 µM; in [8] it was above 100 µM; in [9] it was above 39.1 µM; in test [10] it was above 100 µM.
Take `CCC(C(=O)[C@@H](C)[C@@H](O)[C@H](C)[C@@H]1O[C@@H]([C@@H](CC)C(=O)ONC(=O)c2ccccc2)CC[C@@H]1C)[C@H]1O[C@]2(C=CC(=O)[C@]3(CC[C@@](C)([C@H]4CC[C@](O)(CC)[C@H](C)O4)O3)O2)[C@H](C)C[C@@H]1C` (stereo not given in full): the GI50 in [1] is 0.122 µM; in test [2], 0.403 µM; in test [3], 0.0875 µM; in [4], 0.0838 µM; in [5], 0.0614 µM; in test [6] it was 0.592 µM. The GI50 is 0.198 µM in [7], 0.295 µM in test [8], 0.331 µM in [9] and 0.658 µM in [10]. The TGI in test [1] came to 1.78 µM; in test [2] it was 1.79 µM; in test [3], 0.442 µM; in test [4] it was 2.3 µM; in test [5], 1.49 µM; in test [6], 2.94 µM. For the same compound, the concentration for total growth inhibition (TGI) was 0.631 µM in [7], 1.63 µM in [8], 2.09 µM in test [9] and 4.03 µM in test [10].
Consider `CC(C)(C)OC(=O)N1Cc2cc3ccccc3nc2C1CO` (stereo not given), for which the GI50 in test [1], in [2], in [3], in test [4], in test [5] and in [6] was above 100 µM throughout. Moreover, the GI50 in [7], in [8], in [9] and in [10] was above 100 µM each time. The TGI in test [1], in test [2], in test [3], in [4], in test [5] and in test [6] was above 100 µM in each case. In addition, the TGI in [7], in [8], in [9] and in test [10] was above 100 µM each time.
Regarding `CCN(CC)CCCC(C)Nc1ccnc(/C=C/c2ccc(Cl)cc2)c1` (stereo not given), the concentration for total growth inhibition (TGI) in test [1] was 3.01 µM; in test [2], 3.17 µM; in [3], above 100 µM; in test [4], 5.74 µM; in test [5], 10.9 µM; in [6], 7.39 µM. For the same compound, the TGI in test [7] came out at 9.47 µM; in test [8], 3.19 µM; in [9], 7.49 µM; in test [10], 4.03 µM.
Turning to `NS(=O)(=O)c1cc(C(=O)O)c(Cl)c([N+](=O)[O-])c1Cl`, the TGI in [1], in test [2], in test [3], in test [4], in [5] and in test [6] was above 100 µM in each case. Also, the TGI in test [7], in test [8], in test [9] and in test [10] was above 100 µM throughout.
For the compound `c1ccc2c(c1)[nH]c1c3ccccc3sc21`, the TGI in [1], in test [2], in test [3], in test [4], in [5] and in test [6] was above 100 µM throughout. Further, the TGI in test [7], in test [8], in [9] and in [10] was above 100 µM each time.
Take `Cn1cc(-c2nc(-c3cn(C)c4ncccc34)cs2)c2ccccc21`: the GI50 is 1.68 µM in [1]; 4.93 µM in test [2]; 1.92 µM in test [3]; 3.72 µM in test [4]; 4.76 µM in [5]; 0.61 µM in [6]. In addition, the GI50 in test [7] is 1.39 µM; in [8], 3.16 µM; in test [9] it was 0.858 µM; in test [10], 2.05 µM. Further, the concentration for total growth inhibition (TGI) in test [1] was 14 µM; in test [2], above 100 µM; in test [3], above 100 µM; in test [4], above 100 µM; in test [5], above 100 µM; in test [6] it was above 100 µM. In addition, the TGI in [7] was 38.7 µM; in test [8] it was 21.8 µM; in [9], 15.9 µM; in test [10], above 100 µM.
With `COC(=O)[C@H](CCCCNC(=O)OCc1ccccc1)NC(=O)[C@@H](NC(=O)Nc1cc(C(F)(F)F)cc(C(F)(F)F)c1)C(C)C`, the GI50 in test [1], in test [2], in [3], in test [4], in test [5] and in test [6] was above 10 µM throughout. For the same compound, the GI50 in test [7], in test [8], in [9] and in test [10] was above 10 µM throughout. The TGI in test [1], in test [2], in [3], in [4], in [5] and in [6] was above 10 µM in each case. For the same compound, the TGI in test [7], in [8], in test [9] and in [10] was above 10 µM in each case.
Consider `CC(=O)/C=C/c1ccc(N(CCO)Cc2ccc(C(C)(C)C)cc2)cc1`, for which the GI50 in test [1] was 29.3 µM; in test [2] it was 22.5 µM; in test [3], 24.9 µM; in test [4], 28.2 µM; in test [5], 38.7 µM; in [6], 39.6 µM. The GI50 was 112 µM in [7], 87.9 µM in test [8], 39.9 µM in test [9] and 152 µM in test [10]. Also, the TGI stood at 129 µM in [1]; 122 µM in [2]; 66.8 µM in test [3]; 72.5 µM in test [4]; 157 µM in [5]; 155 µM in [6]. Moreover, the TGI in test [7] came out at 260 µM; in test [8], 225 µM; in test [9] it was 144 µM; in test [10] it was 321 µM.
With `Cc1cn2c(/C=C3\C(=O)N(C)c4ccc(Cl)cc43)c(C)nc2s1`, the GI50 is 3.47 µM in test [1]; 7.18 µM in test [2]; 3.36 µM in test [3]; 2.84 µM in test [4]; 5.24 µM in test [5]; 1.29 µM in test [6]. Also, the GI50 in test [7] was 2.99 µM; in test [8], 4.5 µM; in [9], 2.86 µM; in test [10], 2.61 µM. Moreover, the TGI in [1] was above 100 µM; in test [2] it was 67.1 µM; in [3] it was above 100 µM; in test [4] it was 9.4 µM; in [5], above 100 µM; in [6], above 100 µM. For the same compound, the total growth inhibition concentration (TGI) in test [7] was above 100 µM; in [8], 23.5 µM; in [9] it was 15.3 µM; in [10] it was 6.18 µM.
Take `O=C(CC1Sc2ccccc2NC1=O)NNc1ccc(F)cc1` (stereo not given): the GI50 is 55.6 µM in test [1]; 7.47 µM in test [2]; 7.9 µM in test [3]; 52 µM in test [4]; 22.1 µM in test [5]; 25.2 µM in [6]. The GI50 in test [7] was 40.5 µM; in test [8], 47.6 µM; in test [9], 30.8 µM; in [10] it was 30.9 µM. For the same compound, the TGI in [1], in test [2], in test [3], in test [4], in test [5] and in [6] was above 100 µM throughout. Besides, the TGI in test [7], in test [8], in test [9] and in test [10] was above 100 µM each time.
Regarding `CC(=N/NC(N)=S)/C(C)=N/NC(N)=S`, the TGI in [1], in [2], in [3], in test [4], in [5] and in [6] was above 100 µM each time. The TGI in test [7], in test [8], in [9] and in test [10] was above 100 µM throughout.
As for `C=C1C(=O)O[C@H]2[C@H]1CC/C(COC(=O)/C=C\C(=O)NCc1ccc(Cn3c(=O)sn(-c4ccc(Cl)cc4)c3=O)cc1)=C\CC[C@@]1(C)O[C@@H]21`, the GI50 in test [1] was 0.564 µM; in test [2] it was 0.515 µM; in [3] it was 0.696 µM; in [4] it was 0.27 µM; in test [5] it was 0.666 µM; in test [6], 0.891 µM. Also, the GI50 in test [7] is 0.638 µM; in test [8] it was 0.758 µM; in [9] it was 0.811 µM; in test [10], 0.896 µM. Besides, the TGI in test [1] was found to be 1.59 µM; in test [2] it was 1.1 µM; in test [3] it was 2.52 µM; in test [4] it was 2.05 µM; in [5], 1.63 µM; in test [6] it was 1.82 µM. Also, the TGI in test [7] was 1.36 µM; in [8], 1.76 µM; in test [9] it was 1.74 µM; in [10], 1.7 µM.
